This passage reports activity coefficient results from the NIST ThermoML archive (doi:10.1016/j.jct.2014.12.023).

± gives the expanded uncertainty stated by the source.

This data set in a line: activity coefficient (dimensionless); of the first substance listed, at infinite dilution; xn = mol fraction of the nth substance listed. The settings on record: 87.4 kPa, Liquid, Chromatography, x1 = 0.

Regarding `C1COCCO1` [1,4-dioxane] + O=S(=O)([N-]S(=O)(=O)C(F)(F)F)C(F)(F)F.O=S(=O)([N-]S(=O)(=O)C(F)(F)F)C(F)(F)F.c1ccc2cc(C[N+]3(CCCCCCCCC[N+]4(Cc5ccc6ccccc6c5)CCCC4)CCCC3)ccc2c1, the activity coefficient runs as follows: (313 K) 0.382 ± 0.029; (323 K) 0.397 ± 0.029; (333 K) 0.413 ± 0.03; (343 K) 0.451 ± 0.031.
For `c1ccccc1` [benzene] + O=S(=O)([N-]S(=O)(=O)C(F)(F)F)C(F)(F)F.O=S(=O)([N-]S(=O)(=O)C(F)(F)F)C(F)(F)F.c1ccc2cc(C[N+]3(CCCCCCCCC[N+]4(Cc5ccc6ccccc6c5)CCCC4)CCCC3)ccc2c1, the activity coefficient is, setting by setting: (313 K) 0.515 ± 0.031; (323 K) 0.517 ± 0.031; (333 K) 0.52 ± 0.031; (343 K) 0.574 ± 0.034.
Take `ClC(Cl)(Cl)Cl` [tetrachloromethane] + O=S(=O)([N-]S(=O)(=O)C(F)(F)F)C(F)(F)F.O=S(=O)([N-]S(=O)(=O)C(F)(F)F)C(F)(F)F.c1ccc2cc(C[N+]3(CCCCCCCCC[N+]4(Cc5ccc6ccccc6c5)CCCC4)CCCC3)ccc2c1: the activity coefficient amounted to 1.45 ± 0.07 (313 K), 1.47 ± 0.071 (323 K), 1.51 ± 0.073 (333 K) and 1.52 ± 0.074 (343 K).
Taken in the same sequence, the figures for `O=C1CCCC1` [cyclopentanone] + O=S(=O)([N-]S(=O)(=O)C(F)(F)F)C(F)(F)F.O=S(=O)([N-]S(=O)(=O)C(F)(F)F)C(F)(F)F.c1ccc2cc(C[N+]3(CCCCCCCCC[N+]4(Cc5ccc6ccccc6c5)CCCC4)CCCC3)ccc2c1 were 0.318 ± 0.028, 0.324 ± 0.028, 0.33 ± 0.028 and 0.347 ± 0.028.
On the same counts, the results for `C1CCCCC1` [cyclohexane] + O=S(=O)([N-]S(=O)(=O)C(F)(F)F)C(F)(F)F.O=S(=O)([N-]S(=O)(=O)C(F)(F)F)C(F)(F)F.c1ccc2cc(C[N+]3(CCCCCCCCC[N+]4(Cc5ccc6ccccc6c5)CCCC4)CCCC3)ccc2c1 are 3.83 ± 0.22, 3.35 ± 0.19, 2.98 ± 0.17 and 2.49 ± 0.16.
Taken in the same sequence, the figures for `ClCCCl` [1,2-dichloroethane] + O=S(=O)([N-]S(=O)(=O)C(F)(F)F)C(F)(F)F.O=S(=O)([N-]S(=O)(=O)C(F)(F)F)C(F)(F)F.c1ccc2cc(C[N+]3(CCCCCCCCC[N+]4(Cc5ccc6ccccc6c5)CCCC4)CCCC3)ccc2c1 were 0.568 ± 0.032, 0.569 ± 0.032, 0.596 ± 0.033 and 0.613 ± 0.033.
With `CCCC=O` [butanal] + O=S(=O)([N-]S(=O)(=O)C(F)(F)F)C(F)(F)F.O=S(=O)([N-]S(=O)(=O)C(F)(F)F)C(F)(F)F.c1ccc2cc(C[N+]3(CCCCCCCCC[N+]4(Cc5ccc6ccccc6c5)CCCC4)CCCC3)ccc2c1, the activity coefficient was 0.448 ± 0.03 (313 K), 0.464 ± 0.03 (323 K), 0.487 ± 0.03 (333 K) and 0.491 ± 0.03 (343 K).
On the same counts, the results for `O=Cc1ccccc1` [benzaldehyde] + O=S(=O)([N-]S(=O)(=O)C(F)(F)F)C(F)(F)F.O=S(=O)([N-]S(=O)(=O)C(F)(F)F)C(F)(F)F.c1ccc2cc(C[N+]3(CCCCCCCCC[N+]4(Cc5ccc6ccccc6c5)CCCC4)CCCC3)ccc2c1 are 0.997 ± 0.044, 0.997 ± 0.044, 0.998 ± 0.044 and 0.999 ± 0.044.
With `c1ccncc1` [pyridine] + O=S(=O)([N-]S(=O)(=O)C(F)(F)F)C(F)(F)F.O=S(=O)([N-]S(=O)(=O)C(F)(F)F)C(F)(F)F.c1ccc2cc(C[N+]3(CCCCCCCCC[N+]4(Cc5ccc6ccccc6c5)CCCC4)CCCC3)ccc2c1, the activity coefficient came to 0.263 ± 0.028 (313 K), 0.266 ± 0.028 (323 K), 0.27 ± 0.028 (333 K) and 0.287 ± 0.028 (343 K).
Taken in the same sequence, the figures for `Cc1ccccc1C` [1,2-dimethylbenzene] + O=S(=O)([N-]S(=O)(=O)C(F)(F)F)C(F)(F)F.O=S(=O)([N-]S(=O)(=O)C(F)(F)F)C(F)(F)F.c1ccc2cc(C[N+]3(CCCCCCCCC[N+]4(Cc5ccc6ccccc6c5)CCCC4)CCCC3)ccc2c1 were 0.84 ± 0.039, 0.852 ± 0.039, 0.864 ± 0.04 and 0.894 ± 0.041.
On the same counts, the results for `CC(C)O` [propan-2-ol] + O=S(=O)([N-]S(=O)(=O)C(F)(F)F)C(F)(F)F.O=S(=O)([N-]S(=O)(=O)C(F)(F)F)C(F)(F)F.c1ccc2cc(C[N+]3(CCCCCCCCC[N+]4(Cc5ccc6ccccc6c5)CCCC4)CCCC3)ccc2c1 are 1.21 ± 0.061, 1.09 ± 0.051, 1.05 ± 0.048 and 0.992 ± 0.045.
For `CCCCCC` [hexane] + O=S(=O)([N-]S(=O)(=O)C(F)(F)F)C(F)(F)F.O=S(=O)([N-]S(=O)(=O)C(F)(F)F)C(F)(F)F.c1ccc2cc(C[N+]3(CCCCCCCCC[N+]4(Cc5ccc6ccccc6c5)CCCC4)CCCC3)ccc2c1, the activity coefficient amounted to 4.73 ± 0.24 (313 K) and 3.9 ± 0.2 (323 K).
Consider `O=C1CCCCC1` [cyclohexanone] + O=S(=O)([N-]S(=O)(=O)C(F)(F)F)C(F)(F)F.O=S(=O)([N-]S(=O)(=O)C(F)(F)F)C(F)(F)F.c1ccc2cc(C[N+]3(CCCCCCCCC[N+]4(Cc5ccc6ccccc6c5)CCCC4)CCCC3)ccc2c1, for which the activity coefficient is 0.998 ± 0.044 (313 K), 0.998 ± 0.044 (323 K), 0.999 ± 0.044 (333 K) and 1 ± 0.044 (343 K).
As to `CO` [methanol] + O=S(=O)([N-]S(=O)(=O)C(F)(F)F)C(F)(F)F.O=S(=O)([N-]S(=O)(=O)C(F)(F)F)C(F)(F)F.c1ccc2cc(C[N+]3(CCCCCCCCC[N+]4(Cc5ccc6ccccc6c5)CCCC4)CCCC3)ccc2c1, the activity coefficient (313 K) turned out to be 0.821 ± 0.038.
As to `Cc1ccccc1` [toluene] + O=S(=O)([N-]S(=O)(=O)C(F)(F)F)C(F)(F)F.O=S(=O)([N-]S(=O)(=O)C(F)(F)F)C(F)(F)F.c1ccc2cc(C[N+]3(CCCCCCCCC[N+]4(Cc5ccc6ccccc6c5)CCCC4)CCCC3)ccc2c1, the activity coefficient is, setting by setting: (313 K) 0.714 ± 0.035; (323 K) 0.721 ± 0.035; (333 K) 0.723 ± 0.036; (343 K) 0.727 ± 0.036.
On the same counts, the results for `CCN(CC)CC` [triethylamine] + O=S(=O)([N-]S(=O)(=O)C(F)(F)F)C(F)(F)F.O=S(=O)([N-]S(=O)(=O)C(F)(F)F)C(F)(F)F.c1ccc2cc(C[N+]3(CCCCCCCCC[N+]4(Cc5ccc6ccccc6c5)CCCC4)CCCC3)ccc2c1 are 0.762 ± 0.098, 1.22 ± 0.081, 1.35 ± 0.068 and 1.45 ± 0.072.
On the same counts, the results for `Cc1ccc(C)cc1` [1,4-dimethylbenzene] + O=S(=O)([N-]S(=O)(=O)C(F)(F)F)C(F)(F)F.O=S(=O)([N-]S(=O)(=O)C(F)(F)F)C(F)(F)F.c1ccc2cc(C[N+]3(CCCCCCCCC[N+]4(Cc5ccc6ccccc6c5)CCCC4)CCCC3)ccc2c1 are 0.881 ± 0.04, 0.9 ± 0.041, 0.929 ± 0.042 and 0.992 ± 0.045.
